Data: ChEMBL document CHEMBL5465560, “Selectivity Literature for EUbOPEN Chemogenomic Library” (2024)
One block for each compound: values may come before it.

Legend:
[1] = molecular target: T1, Homeodomain-interacting protein kinase 4 (Homo sapiens) (UniProt Q8NE63); assay: Selectivity interaction (Kinase panel (Z-LYTE Assay)) EUB0001632a HIPK4; conditions: at 10 µM
T1 sequence (whole entry): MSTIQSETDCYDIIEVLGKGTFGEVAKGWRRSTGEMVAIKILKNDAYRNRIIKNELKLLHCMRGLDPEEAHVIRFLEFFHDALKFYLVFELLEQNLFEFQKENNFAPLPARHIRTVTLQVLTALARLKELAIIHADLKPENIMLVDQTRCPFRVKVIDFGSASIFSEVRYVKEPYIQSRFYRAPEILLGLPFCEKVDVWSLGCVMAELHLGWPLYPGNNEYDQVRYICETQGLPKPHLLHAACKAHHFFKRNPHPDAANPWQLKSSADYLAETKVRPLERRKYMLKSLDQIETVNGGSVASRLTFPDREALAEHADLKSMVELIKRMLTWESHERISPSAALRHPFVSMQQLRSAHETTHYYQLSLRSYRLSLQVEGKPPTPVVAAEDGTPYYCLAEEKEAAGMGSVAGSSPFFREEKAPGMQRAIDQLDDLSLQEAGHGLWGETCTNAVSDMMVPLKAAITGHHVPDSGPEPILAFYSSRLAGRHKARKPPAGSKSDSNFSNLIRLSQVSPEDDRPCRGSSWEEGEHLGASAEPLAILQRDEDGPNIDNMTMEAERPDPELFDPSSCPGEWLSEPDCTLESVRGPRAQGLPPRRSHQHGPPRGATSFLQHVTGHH

[2] = molecular target: Ribosomal protein S6 kinase alpha-5 (Homo sapiens) (UniProt O75582); assay: Selectivity interaction (KinomeScan (DiscoverX)) EUB0000666a RPS6KA5; conditions: at 10 µM
[3] = molecular target: Dual specificity mitogen-activated protein kinase kinase 2 (Homo sapiens) (UniProt P36507); assay: Selectivity interaction (Kinase panel (Invitrogen)) EUB0000639a MAP2K2; conditions: at 200 nM
[4] = molecular target: T2, Serine/threonine-protein kinase haspin (Homo sapiens) (UniProt Q8TF76); assay: Selectivity interaction (ProQinase) EUB0000171b GSG2
T2 sequence (whole entry): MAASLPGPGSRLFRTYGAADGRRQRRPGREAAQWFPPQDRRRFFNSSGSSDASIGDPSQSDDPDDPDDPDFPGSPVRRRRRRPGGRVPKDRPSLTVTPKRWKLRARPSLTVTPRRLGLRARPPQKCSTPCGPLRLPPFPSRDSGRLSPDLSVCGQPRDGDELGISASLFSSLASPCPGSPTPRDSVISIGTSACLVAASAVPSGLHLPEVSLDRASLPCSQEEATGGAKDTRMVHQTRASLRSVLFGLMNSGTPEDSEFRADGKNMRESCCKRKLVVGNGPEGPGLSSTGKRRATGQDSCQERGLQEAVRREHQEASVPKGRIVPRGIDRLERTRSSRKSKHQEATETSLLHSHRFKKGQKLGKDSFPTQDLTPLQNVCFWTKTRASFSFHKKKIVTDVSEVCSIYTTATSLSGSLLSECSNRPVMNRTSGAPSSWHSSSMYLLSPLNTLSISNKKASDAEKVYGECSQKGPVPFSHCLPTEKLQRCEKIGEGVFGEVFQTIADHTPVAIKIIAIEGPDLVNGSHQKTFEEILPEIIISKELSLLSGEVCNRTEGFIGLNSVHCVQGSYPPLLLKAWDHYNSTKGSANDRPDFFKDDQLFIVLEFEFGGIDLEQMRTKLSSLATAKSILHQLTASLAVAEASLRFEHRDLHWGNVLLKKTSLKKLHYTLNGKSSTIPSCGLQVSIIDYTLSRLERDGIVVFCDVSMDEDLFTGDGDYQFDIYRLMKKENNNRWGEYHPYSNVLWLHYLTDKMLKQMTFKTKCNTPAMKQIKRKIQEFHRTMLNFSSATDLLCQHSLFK

[5] = molecular target: Mitogen-activated protein kinase 8 (Homo sapiens, UniProt P45983); assay: Selectivity interaction (KinomeScan (DiscoverX)) EUB0000595a MAPK8; conditions: at 10 µM
Ephrin type-A receptor 4 = Ephrin type-A receptor 4 (Homo sapiens, UniProt P54764); assay: Selectivity interaction (KinomeScan (DiscoverX)) EUB0001049a EPHA4; conditions: at 1 µM
[6] = molecular target: T3, Interleukin-1 receptor-associated kinase 4 (Homo sapiens) (UniProt Q9NWZ3); assay: Selectivity interaction (Kinase panel (KiNativ target engagement assay in Jurkat cells)) EUB0001635a IRAK4; type: cell-based; conditions: Selectivity number of off-targets 0.0, Selectivity number of targets 233.0, Source Knowledge https://www.sciencedirect.com/science/article/pii/S2451945619300674?via%3Dihub, at 1 µM
T3 sequence (whole entry): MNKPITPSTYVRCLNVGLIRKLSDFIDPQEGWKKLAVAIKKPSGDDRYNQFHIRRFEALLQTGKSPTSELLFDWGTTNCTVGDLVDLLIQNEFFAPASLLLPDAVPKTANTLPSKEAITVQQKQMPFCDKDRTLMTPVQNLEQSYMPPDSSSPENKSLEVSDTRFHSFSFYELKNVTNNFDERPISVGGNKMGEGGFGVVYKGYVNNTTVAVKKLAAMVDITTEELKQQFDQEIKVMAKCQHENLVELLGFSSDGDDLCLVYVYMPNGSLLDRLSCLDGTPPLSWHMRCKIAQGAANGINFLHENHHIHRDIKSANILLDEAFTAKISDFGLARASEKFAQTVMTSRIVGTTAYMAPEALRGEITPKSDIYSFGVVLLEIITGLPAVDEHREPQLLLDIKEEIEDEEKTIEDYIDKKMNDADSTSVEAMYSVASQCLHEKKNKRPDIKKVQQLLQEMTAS

[7] = molecular target: Serine/threonine-protein kinase SIK1 (Homo sapiens) (UniProt P57059); assay: Selectivity interaction (Kinase panel (Carna Biosciences)) EUB0001542aTs SIK1; conditions: at 1 µM
[8] = molecular target: Cyclin-dependent kinase-like 1 (Homo sapiens) (UniProt Q00532); conditions: at 10 µM
[9] = molecular target: Cyclin-dependent kinase-like 3 (Homo sapiens) (UniProt Q8IVW4); conditions: at 10 µM
Cyclin-dependent kinase-like 3 (Homo sapiens), sequence (Q8IVW4 whole entry, looked up): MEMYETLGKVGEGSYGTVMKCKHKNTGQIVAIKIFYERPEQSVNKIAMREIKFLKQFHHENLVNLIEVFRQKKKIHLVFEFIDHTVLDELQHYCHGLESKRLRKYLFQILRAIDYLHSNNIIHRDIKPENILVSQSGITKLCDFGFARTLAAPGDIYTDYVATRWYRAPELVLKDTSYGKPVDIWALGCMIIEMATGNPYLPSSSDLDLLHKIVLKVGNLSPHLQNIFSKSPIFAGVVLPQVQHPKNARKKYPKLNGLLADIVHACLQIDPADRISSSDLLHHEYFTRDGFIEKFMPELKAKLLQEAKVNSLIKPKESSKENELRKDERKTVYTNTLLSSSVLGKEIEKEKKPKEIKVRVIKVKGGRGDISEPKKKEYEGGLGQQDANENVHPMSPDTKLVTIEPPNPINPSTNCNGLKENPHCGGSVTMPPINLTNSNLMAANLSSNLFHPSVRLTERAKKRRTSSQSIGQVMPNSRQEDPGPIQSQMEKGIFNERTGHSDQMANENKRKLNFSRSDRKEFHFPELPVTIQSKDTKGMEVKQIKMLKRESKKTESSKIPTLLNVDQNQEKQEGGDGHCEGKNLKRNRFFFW

Mitogen-activated protein kinase 8, sequence (P45983 whole entry): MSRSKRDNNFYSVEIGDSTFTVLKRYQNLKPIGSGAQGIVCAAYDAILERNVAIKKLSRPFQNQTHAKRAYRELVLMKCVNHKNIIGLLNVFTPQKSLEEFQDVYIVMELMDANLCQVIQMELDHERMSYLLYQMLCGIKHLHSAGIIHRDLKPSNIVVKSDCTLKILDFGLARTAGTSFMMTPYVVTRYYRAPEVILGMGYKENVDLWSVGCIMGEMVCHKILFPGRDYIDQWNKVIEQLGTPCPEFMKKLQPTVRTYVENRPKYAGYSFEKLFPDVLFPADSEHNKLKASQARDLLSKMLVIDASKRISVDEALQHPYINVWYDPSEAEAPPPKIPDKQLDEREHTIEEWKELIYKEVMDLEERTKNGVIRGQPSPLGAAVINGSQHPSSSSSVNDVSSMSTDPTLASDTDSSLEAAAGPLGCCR
Ephrin type-A receptor 4, sequence (P54764 whole entry): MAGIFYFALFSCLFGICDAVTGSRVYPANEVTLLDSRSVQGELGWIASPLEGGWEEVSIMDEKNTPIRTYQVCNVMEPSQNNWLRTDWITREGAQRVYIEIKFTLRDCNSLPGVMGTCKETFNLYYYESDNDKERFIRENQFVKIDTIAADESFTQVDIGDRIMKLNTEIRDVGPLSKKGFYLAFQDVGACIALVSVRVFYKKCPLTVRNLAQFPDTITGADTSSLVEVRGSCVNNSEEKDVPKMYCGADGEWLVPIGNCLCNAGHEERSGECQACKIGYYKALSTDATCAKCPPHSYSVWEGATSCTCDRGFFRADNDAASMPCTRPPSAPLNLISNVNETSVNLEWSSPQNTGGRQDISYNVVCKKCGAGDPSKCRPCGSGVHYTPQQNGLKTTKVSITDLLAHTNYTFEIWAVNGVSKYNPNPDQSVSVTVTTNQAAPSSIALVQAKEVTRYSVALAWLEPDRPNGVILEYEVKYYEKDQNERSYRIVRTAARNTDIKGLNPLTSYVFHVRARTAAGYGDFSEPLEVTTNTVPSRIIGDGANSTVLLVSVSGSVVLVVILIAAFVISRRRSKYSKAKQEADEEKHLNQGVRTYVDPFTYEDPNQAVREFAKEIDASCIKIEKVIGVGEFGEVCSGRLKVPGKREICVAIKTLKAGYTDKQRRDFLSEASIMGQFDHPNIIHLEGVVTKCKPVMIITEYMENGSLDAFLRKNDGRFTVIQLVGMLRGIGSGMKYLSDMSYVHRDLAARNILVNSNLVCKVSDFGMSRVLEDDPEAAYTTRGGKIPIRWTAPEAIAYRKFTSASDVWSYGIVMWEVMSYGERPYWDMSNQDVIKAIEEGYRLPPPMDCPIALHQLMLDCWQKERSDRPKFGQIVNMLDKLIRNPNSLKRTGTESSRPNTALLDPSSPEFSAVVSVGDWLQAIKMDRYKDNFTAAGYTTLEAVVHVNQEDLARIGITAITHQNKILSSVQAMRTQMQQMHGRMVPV
Cyclin-dependent kinase-like 1 (Homo sapiens), sequence (Q00532 whole entry): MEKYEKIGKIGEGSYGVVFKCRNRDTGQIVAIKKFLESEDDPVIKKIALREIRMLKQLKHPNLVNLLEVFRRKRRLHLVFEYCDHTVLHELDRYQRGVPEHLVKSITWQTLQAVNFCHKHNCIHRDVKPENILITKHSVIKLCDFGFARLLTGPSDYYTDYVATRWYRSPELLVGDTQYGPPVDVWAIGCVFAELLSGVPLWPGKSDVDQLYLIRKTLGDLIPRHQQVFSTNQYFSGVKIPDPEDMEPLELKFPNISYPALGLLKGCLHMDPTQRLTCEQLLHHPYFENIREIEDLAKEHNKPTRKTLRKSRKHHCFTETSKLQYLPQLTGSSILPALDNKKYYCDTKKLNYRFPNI
Ribosomal protein S6 kinase alpha-5 (Homo sapiens), sequence (O75582 whole entry, looked up): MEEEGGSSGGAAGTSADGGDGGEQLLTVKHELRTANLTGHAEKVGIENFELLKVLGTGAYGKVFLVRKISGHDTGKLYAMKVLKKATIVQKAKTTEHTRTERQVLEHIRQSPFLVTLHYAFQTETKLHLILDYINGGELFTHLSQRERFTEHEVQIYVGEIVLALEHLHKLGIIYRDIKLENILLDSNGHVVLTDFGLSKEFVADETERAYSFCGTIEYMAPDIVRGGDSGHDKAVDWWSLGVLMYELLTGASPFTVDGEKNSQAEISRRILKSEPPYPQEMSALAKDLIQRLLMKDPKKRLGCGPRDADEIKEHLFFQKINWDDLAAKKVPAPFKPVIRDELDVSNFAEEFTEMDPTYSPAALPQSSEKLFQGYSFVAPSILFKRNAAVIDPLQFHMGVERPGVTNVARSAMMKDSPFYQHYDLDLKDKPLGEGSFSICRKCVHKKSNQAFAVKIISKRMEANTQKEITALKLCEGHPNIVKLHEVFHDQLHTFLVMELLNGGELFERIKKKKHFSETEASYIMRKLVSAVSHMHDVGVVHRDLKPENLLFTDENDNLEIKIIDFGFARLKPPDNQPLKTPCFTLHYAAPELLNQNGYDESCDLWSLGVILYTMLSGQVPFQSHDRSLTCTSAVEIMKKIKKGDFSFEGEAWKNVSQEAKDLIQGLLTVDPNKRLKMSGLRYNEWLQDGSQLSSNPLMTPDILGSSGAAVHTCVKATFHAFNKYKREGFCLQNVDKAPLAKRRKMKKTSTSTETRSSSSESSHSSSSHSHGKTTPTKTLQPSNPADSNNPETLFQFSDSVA
Dual specificity mitogen-activated protein kinase kinase 2 (Homo sapiens), sequence (P36507 whole entry): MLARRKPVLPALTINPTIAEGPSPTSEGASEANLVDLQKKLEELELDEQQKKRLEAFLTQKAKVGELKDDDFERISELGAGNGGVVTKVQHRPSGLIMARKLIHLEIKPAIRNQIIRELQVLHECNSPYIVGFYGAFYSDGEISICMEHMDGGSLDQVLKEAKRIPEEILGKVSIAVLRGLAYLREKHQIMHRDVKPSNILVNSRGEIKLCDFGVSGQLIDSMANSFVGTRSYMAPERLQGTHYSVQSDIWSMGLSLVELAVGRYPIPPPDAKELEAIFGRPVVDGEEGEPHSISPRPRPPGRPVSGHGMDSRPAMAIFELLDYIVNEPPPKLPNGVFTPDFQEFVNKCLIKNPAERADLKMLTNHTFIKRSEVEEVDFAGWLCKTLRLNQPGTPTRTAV
Serine/threonine-protein kinase SIK1 (Homo sapiens), sequence (P57059 whole entry): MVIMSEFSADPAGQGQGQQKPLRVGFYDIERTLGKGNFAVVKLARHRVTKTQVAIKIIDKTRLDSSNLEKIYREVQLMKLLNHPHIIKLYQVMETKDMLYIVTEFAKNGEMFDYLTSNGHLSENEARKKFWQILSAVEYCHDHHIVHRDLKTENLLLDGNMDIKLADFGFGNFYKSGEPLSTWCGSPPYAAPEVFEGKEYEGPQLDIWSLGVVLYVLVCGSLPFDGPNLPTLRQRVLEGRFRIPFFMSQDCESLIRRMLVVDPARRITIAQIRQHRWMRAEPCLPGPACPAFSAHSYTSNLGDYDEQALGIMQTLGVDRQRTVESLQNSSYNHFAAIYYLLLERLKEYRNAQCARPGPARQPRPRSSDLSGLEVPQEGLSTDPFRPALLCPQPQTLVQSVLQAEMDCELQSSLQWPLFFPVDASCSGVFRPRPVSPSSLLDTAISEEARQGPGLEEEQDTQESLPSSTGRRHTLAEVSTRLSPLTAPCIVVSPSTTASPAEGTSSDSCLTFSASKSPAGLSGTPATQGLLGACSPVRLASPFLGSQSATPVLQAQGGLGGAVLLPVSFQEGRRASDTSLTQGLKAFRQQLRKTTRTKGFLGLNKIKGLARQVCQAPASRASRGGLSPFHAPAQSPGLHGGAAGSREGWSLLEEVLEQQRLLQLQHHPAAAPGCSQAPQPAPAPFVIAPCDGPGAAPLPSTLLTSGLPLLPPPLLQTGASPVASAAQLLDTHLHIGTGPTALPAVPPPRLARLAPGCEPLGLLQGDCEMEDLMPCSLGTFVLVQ

% of control [1]: 6.45%
SMILES: Cn1cc(-n2cnc3c(NCc4nc5cc(Cl)c(Cl)cc5[nH]4)nc(N4CCOCC4)nc32)cn1

SMILES: O=C(NOC[C@H](O)CO)c1ccc(F)c(F)c1Nc1ccc(I)cc1F
% of control [2]: 100%

% of inhibition [3]: 13.2%
SMILES: CC[C@@H]1[C@H](F)C(=O)N[C@@H]1COc1nccc2cc(C(N)=O)c(OC)cc12 [ZIMLOVISERTIB]

% of control ([4]; at 1 µM): 84%
% of control ([4]; at 5 µM): 56%
SMILES: C=CC(=O)Nc1cccc(C(=O)Nc2ccc(Nc3cc(-c4[nH]c(SC)nc4C)ccn3)cc2)c1

SMILES: COCC(=O)NC/C=C/c1ccc2ncnc(Nc3ccc(Oc4ccc(C)nc4)c(C)c3)c2c1 [CP-724714]
% of control [5]: 66%

SMILES: COc1cc(Nc2nc(C)cc(-c3cnn4nc(OC)ccc34)n2)cc(C(F)(F)F)c1
% of control (Ephrin type-A receptor 4): 100%

SMILES: C=CC(=O)Nc1ccc(C(=O)Nc2[nH]nc3c2CN(C(=O)N[C@H](CN(C)C)c2ccccc2)C3(C)C)cc1
% of engagement [6]: 2%

% of inhibition [7]: 77%
SMILES: Cn1cc(Nc2nccc(N3CC4CCC(C3)N4C(=O)[C@@H]3CC3(F)F)n2)cn1

SMILES: Cc1cc([C@@H](C)Nc2ccccc2C(=O)O)c2nc(N3CCOCC3)cc(=O)n2c1 [AZD-6482]
% of control [8]: 100%
% of control [9]: 90%
